Measured values taken from publication PMC9499324, “Glycyrrhizic Acid Derivatives Bearing Amino Acid Residues in the Carbohydrate Part as Dengue Virus E Protein Inhibitors: Synthesis and Antiviral Activity” (International Journal of Molecular Sciences, 2022).

Legend:
wild-type JEV SRIPs = test: Attachment assay with wild-type JEV SRIPs on Vero E6 cells; assay type: cell-based, Japanese encephalitis virus; conditions: 4 °C for 1 h
Experimental: (§1) Figure 6 Attachment inhibition of chimeric DENV2 CprM-E/JEV and wild-type JEV SRIPs by active GL conjugates. Vero E6 cells were pre-cooled and incubated with freshly prepared mixtures of DENV2 CprM-E/JEV or wild-type JEV SRIPs, with active GL derivatives 3 (A), 6 (B), 11 (C), and 21 (D) at 4 °C for 1 h, respectively. After the removal of the mixtures, the cells were kept at 37 °C for 18 h and then an immunofluorescent assay with anti-JEV NS5 antibodies plus DAPI staining was performed. Finally, the inhibition percentage of SRIP attachment infectivity was measured as follows: 1-(percentage of JEV NS5 positivity in treated cells/percentage of JEV NS5 positivity in mock-treated cells). * p < 0.05; *** p < 0.001 compared with untreated, infected cells.
(§2) DNA-launched cytomegaloviruses (CMV) promoter-driven JEV and ZIKV replicons had been constructed, as described in our prior reports. […] After the removal of the mixture (the compound and SRIP), the cells were incubated at 37 °C for 18 h, and then were analyzed by immunofluorescent assay with anti-JEV NS3 and anti-ZIKV NS5 antibodies, respectively, plus DAPI staining for determining the residual infectivity of wild-type and chimeric SRIPs, as described above.

wild-type ZIKV SRIPs = test: Attachment assay with wild-type ZIKV SRIPs on Vero E6 cells; assay type: cell-based, Zika virus; conditions: 4 °C for 1 h
Experimental: Figure 7 Attachment inhibition of chimeric DENV2 prM-E/ZIKV and wild-type ZIKV SRIPs by active GL derivatives 3 and 11. Vero E6 cells were pre-cooled and incubated with fresh-prepared mixtures of DENV2 prM-E/ZIKV or wild-type ZIKV SRIPs, with active GL derivatives 3 (A), and 11 (B) at 4 °C for 1 h, respectively. After the removal of the mixtures, the cells were kept at 37 °C for 18 h and then an immunofluorescent assay with anti-ZIKV NS1 antibodies plus DAPI staining was performed. Finally, the inhibition percentage of SRIP attachment infectivity was measured as follows: 1-(percentage of ZIKV NS1 positivity in treated cells/ percentage of ZIKV NS1 positivity in mock-treated cells). * p < 0.05; *** p < 0.001 compared with untreated, infected cells.
as §2

DENV1 = DENV1 infectivity inhibition assay in Vero E6 cells; assay type: cell-based; conditions: Dengue virus, DENV1, Vero C1008, read-out: IC50 in the DENV1 infectivity inhibition assay
Experimental: In the antiviral screening assay, each tested GL conjugate at 10 μM was used to survey the anti-DENV activity in Vero E6 cells using cytopathic effect (CPE) and infectivity reduction assays as described in our prior report. In CPE and infectivity reduction assays, Vero E6 cells were infected by DENV2 at an MOI of 0.005 and simultaneously treated 10 μM of indicated GL conjugate for 96 h, and then photographed by microscope for examining the levels of DENV2-induced CPE in infected cells treated with or without GL conjugate. Meanwhile, the cells were further performed using immunofluorescence assay (IFA) with anti-DENV NS4B antibodies (GeneTex, Inc., Hsinchu, Taiwan) and anti-rabbit IgG antibodies conjugated with AF555 (ThermoFisher, Waltham, MA, USA) plus DAPI (4′,6-diamidino-2-phenylindole) nuclear staining. Finally, the DENV-2 infectivity was measured according to the ratio of DENV NS4B-positive cells to DAPI-stained cells in the well of mock-treated or treated cells, as described in [45, 59, 60].
Supplemental Figure S25. Infectivity inhbition of DENV1 in Vero E6 cells by active GL conjugates. Cells were infected with DENV1 in the presence and absence of Compounds 3, 6, 11, and 21 at the concentrations of 0.1, 1, and 10 μM, respectively. Treated/infected Vero E6 cells were also analyzed using immunofluorescence staining with anti-DENV2 NS4B antibodies.
Residual infectivity was discovered by the ratio of DENV2 NS4B positive cells to total cells stained with DAPI, and relative inhibition activity was determined based on full infectivity with the subtraction of its residual infectivity.
(1 picture or pasted object on this page, not shown here)

DENV2 = DENV2 infectivity inhibition (anti-NS4B immunofluorescence) in A549 cells; assay type: cell-based, Dengue virus type 2; conditions: Dengue virus
DENV2 CprME/JEV SRIPs = test: E protein-mediated attachment assay with chimeric DENV2 CprME/JEV SRIPs on Vero E6 cells; assay type: cell-based, Dengue virus type 2; conditions: Dengue virus, DENV2, Vero C1008, 1 h, read-out: IC50 of E-mediated attachment against DENV2 CprME/JEV SRIPs
Experimental: as §1, §2

SMILES | Attachment of wild-type JEV SRIPs onto Vero E6 cells (wild-type JEV SRIPs) | Attachment of wild-type ZIKV SRIPs onto Vero E6 cells (wild-type ZIKV SRIPs) | IC50 (DENV1) [nM] | IC50 (DENV2) [nM] | IC50 (DENV2 CprME/JEV SRIPs) [nM]
COC(=O)[C@H](NC(=O)[C@H]1O[C@@H](O[C@H]2[C@H](OC3CC[C@@]4(C)C(CC[C@]5(C)C4C(=O)C=C4C6C[C@@](C)(C(=O)O)CC[C@]6(C)CC[C@]45C)C3(C)C)O[C@H](C(=O)N[C@@H](C(=O)OC)C(C)C)[C@@H](O)[C@@H]2O)[C@H](O)[C@@H](O)[C@@H]1O)C(C)C (stereo partly drawn) [Compound 3, 3-O-{2-O-[N-(β-D-Glucopyranosyluronoyl)-D-valinemethyl ester]-N-(β-D-glucopyranosyluronoyl)-D-valinemethyl ester}-(3β, 20β)-11-oxo-30-noroleane-12-ene-30-oic Acid] | did not impede | did not impede | 2810 ± 540 | 120 ± 28 | 6690
CCOC(=O)[C@H](Cc1ccccc1)NC(=O)[C@H]1O[C@@H](O[C@H]2[C@H](OC3CC[C@@]4(C)C(CC[C@]5(C)C4C(=O)C=C4C6C[C@@](C)(C(=O)O)CC[C@]6(C)CC[C@]45C)C3(C)C)O[C@H](C(=O)N[C@@H](Cc3ccccc3)C(=O)OCC)[C@@H](O)[C@@H]2O)[C@H](O)[C@@H](O)[C@@H]1O (stereo partly drawn) [Compound 11, 3-O-{2-O-[N-(β-D-Glucopyranosyluronoyl)-L-phenylalanineethyl ester]-N-(β-D-Glucopyranosyluronoyl)-L-phenylalanineethyl ester}-(3β, 20β)-11-oxo-30-noroleane-12-ene-30-oic Acid] | did not impede | did not impede | 1250 ± 167 | 1560 ± 490 | 2820
